From PubChem BioAssay AID256 (DTP/NCI, 2004)
Toxic doses and inconclusive results are not listed. Rule for the calls: active = survival T/C of 150% or more; inactive = T/C below 125% in these data.

Tested on: CD2F1 mice, L1210 leukemia ip, survival T/C
Assay: NCI In Vivo Anticancer Drug Screen. Data for tumor model L1210 Leukemia (intraperitoneal) in CD2F1 (CDF1) mice
Details: endpoint: mean survival time, higher = longer survival
Method in brief: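 Implant tumor; dose compound or vehicle; measure endpoint in both groups; report treated divided by control.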

[1] = dose: 100.0 mg/kg/injection, schedule: Q01DX009 (ip), vehicle: saline with Tween-80
[2] = dose: 200.0 mg/kg/injection, schedule: Q01DX009 (ip), vehicle: saline with Tween-80

Measured: T/C

[NH-]C(CCC(N)=O)C(=O)O.[NH-]C(CCC(N)=O)C(=O)O.[Pt+2] (centres undefined)
inactive: dose: 3.13 mg/kg/injection, schedule: Q04DX003 (ip), vehicle: distilled water + Tween-80 103 % of control | dose: 6.25 mg/kg/injection, schedule: Q04DX003 (ip), vehicle: distilled water + Tween-80 104 % of control | dose: 12.5 mg/kg/injection, schedule: Q04DX003 (ip), vehicle: distilled water + Tween-80 110 % of control | dose: 25.0 mg/kg/injection, schedule: Q04DX003 (ip), vehicle: distilled water + Tween-80 110 % of control | dose: 50.0 mg/kg/injection, schedule: Q04DX003 (ip), vehicle: distilled water + Tween-80 95 % of control | dose: 100.0 mg/kg/injection, schedule: Q04DX003 (ip), vehicle: distilled water + Tween-80 104 % of control | dose: 200.0 mg/kg/injection, schedule: Q04DX003 (ip), vehicle: distilled water + Tween-80 98 % of control

C=CCN(CC#N)CC#N
inactive: dose: 2.5 mg/kg/injection, schedule: Q04DX003 (ip), vehicle: Klucel (hydroxypropylcellulose) (HPC) 106 % of control | dose: 5.0 mg/kg/injection, schedule: Q04DX003 (ip), vehicle: Klucel (hydroxypropylcellulose) (HPC) 97 % of control | dose: 10.0 mg/kg/injection, schedule: Q04DX003 (ip), vehicle: Klucel (hydroxypropylcellulose) (HPC) 105 % of control

O=C1OC(O)C(Cl)=C1Cl (centres undefined)
inactive: dose: 100.0 mg/kg/injection, schedule: Q04DX002 (ip), vehicle: Klucel (hydroxypropylcellulose) (HPC) 103 % of control | dose: 200.0 mg/kg/injection, schedule: Q04DX002 (ip), vehicle: Klucel (hydroxypropylcellulose) (HPC) 91 % of control | dose: 400.0 mg/kg/injection, schedule: Q04DX002 (ip), vehicle: Klucel (hydroxypropylcellulose) (HPC) 97 % of control

CC(=O)OC1CCC2(C)C(CCC3C2C(=O)C(OC(C)=O)C2(C)C3CC3OC4(CCC(C)CO4)C(C)C32)C1 (centres undefined)
inactive: dose: 100.0 mg/kg/injection, schedule: Q04DX003 (ip), vehicle: saline with Tween-80 87 % of control | dose: 200.0 mg/kg/injection, schedule: Q04DX003 (ip), vehicle: saline with Tween-80 87 % of control | dose: 400.0 mg/kg/injection, schedule: Q04DX003 (ip), vehicle: saline with Tween-80 89 % of control

CC12CCC(O)CC1CCC1C2CCC2(C)C(C3COC(=O)C3)CCC12 (centres undefined)
inactive: dose: 50.0 mg/kg/injection, schedule: Q01DX001 (ip), vehicle: saline 98 % of control | dose: 100.0 mg/kg/injection, schedule: Q01DX001 (ip), vehicle: saline 98 % of control | dose: 200.0 mg/kg/injection, schedule: Q01DX001 (ip), vehicle: saline 96 % of control

Brc1ccc(Sc2ccccc2)cc1
inactive: [1] 98 % of control | [2] 93 % of control | dose: 400.0 mg/kg/injection, schedule: Q01DX009 (ip), vehicle: saline with Tween-80 96 % of control

COc1ccccc1C1=CCCCCC1
inactive: [1] 107 % of control | [2] 107 % of control
